Values joined by “and” are separate entries in the source; they are usually repeats but may differ in a detail not shown here. Equal entries are not always repeated. Toxic doses and inconclusive results are not listed. No stated cut-off is given here; in the data, active means T/C of 150% or more; inactive means T/C below 125%.
Test system: L1210 leukemia ip in BDF1 mice, survival T/C
Assay: NCI In Vivo Anticancer Drug Screen. Data for tumor model L1210 Leukemia (intraperitoneal) in B6D2F1 (BDF1) mice
Conditions: endpoint: mean survival time, higher = longer survival
Procedure, shortened: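 Read-out is survival time, reported as the treated-group measurement over the vehicle-control measurement.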

[1] = dose: 100.0 mg/kg/injection, schedule: Q04DX003 (ip), vehicle: saline with Tween-80
[2] = dose: 200.0 mg/kg/injection, schedule: Q04DX003 (ip), vehicle: saline with Tween-80
[3] = dose: 400.0 mg/kg/injection, schedule: Q04DX003 (ip), vehicle: saline with Tween-80
[4] = dose: 100.0 mg/kg/injection, schedule: Q01DX009 (ip), vehicle: Klucel (hydroxypropylcellulose) (HPC)
[5] = dose: 200.0 mg/kg/injection, schedule: Q01DX009 (ip), vehicle: Klucel (hydroxypropylcellulose) (HPC)
[6] = dose: 400.0 mg/kg/injection, schedule: Q01DX009 (ip), vehicle: Klucel (hydroxypropylcellulose) (HPC)
[7] = dose: 100.0 mg/kg/injection, schedule: Q01DX009 (ip), vehicle: saline with Tween-80
[8] = dose: 100.0 mg/kg/injection, schedule: Q04DX002 (ip), vehicle: saline with Tween-80
[9] = dose: 200.0 mg/kg/injection, schedule: Q01DX009 (ip), vehicle: saline with Tween-80
[10] = dose: 200.0 mg/kg/injection, schedule: Q04DX002 (ip), vehicle: saline with Tween-80
[11] = dose: 400.0 mg/kg/injection, schedule: Q01DX009 (ip), vehicle: saline with Tween-80
[12] = dose: 400.0 mg/kg/injection, schedule: Q04DX002 (ip), vehicle: saline with Tween-80
[13] = dose: 100.0 mg/kg/injection, schedule: Q01DX001 (ip), vehicle: saline
[14] = dose: 200.0 mg/kg/injection, schedule: Q01DX001 (ip), vehicle: saline
[15] = dose: 400.0 mg/kg/injection, schedule: Q01DX001 (ip), vehicle: saline
[16] = dose: 75.0 mg/kg/injection, schedule: Q01DX001 (ip), vehicle: carboxymethylcellulose (CMC)
[17] = dose: 100.0 mg/kg/injection, schedule: Q04DX003 (ip), vehicle: Klucel (hydroxypropylcellulose) (HPC)
[18] = dose: 200.0 mg/kg/injection, schedule: Q04DX003 (ip), vehicle: Klucel (hydroxypropylcellulose) (HPC)
[19] = dose: 400.0 mg/kg/injection, schedule: Q04DX003 (ip), vehicle: Klucel (hydroxypropylcellulose) (HPC)
[20] = dose: 100.0 mg/kg/injection, schedule: Q01DX001 (ip), vehicle: carboxymethylcellulose (CMC)
[21] = dose: 200.0 mg/kg/injection, schedule: Q01DX001 (ip), vehicle: carboxymethylcellulose (CMC)

Measured: T/C

COc1cc2c(c(OC)c1OC)-c1ccc(N)c(=O)cc1[C@@H](NC(C)=O)CC2
inactive: dose: 0.5 mg/kg/injection, schedule: Q01DX015 (ip), vehicle: saline 116 % of control | dose: 1.0 mg/kg/injection, schedule: Q01DX015 (ip), vehicle: saline 118 % of control | dose: 2.0 mg/kg/injection, schedule: Q01DX001 (ip), vehicle: saline 112 % of control | dose: 2.0 mg/kg/injection, schedule: Q01DX015 (ip), vehicle: saline 92 % of control | dose: 4.0 mg/kg/injection, schedule: Q01DX001 (ip), vehicle: saline 100 % of control | dose: 4.0 mg/kg/injection, schedule: Q01DX015 (ip), vehicle: saline 116 % of control | dose: 8.0 mg/kg/injection, schedule: Q01DX001 (ip), vehicle: saline 98 % of control | dose: 16.0 mg/kg/injection, schedule: Q01DX001 (ip), vehicle: saline 104 % of control

CC(/C=C\c1cccc([N+](=O)[O-])c1)=N\NC(=O)c1ccncc1
inactive: [1] 93 % of control | [2] 101 % of control | [3] 96 % of control

CC(=O)Nc1nc(/C=N/NC(N)=S)cc(=O)[nH]1
inactive: dose: 75.0 mg/kg/injection, schedule: Q01DX001 (ip), vehicle: other 100 % of control | dose: 150.0 mg/kg/injection, schedule: Q01DX001 (ip), vehicle: other 96 % of control | dose: 300.0 mg/kg/injection, schedule: Q01DX001 (ip), vehicle: other 105 % of control

Cc1cccc(OC(=O)Nc2cccc3ccccc23)c1
inactive: [4] 93 % of control | [5] 87 % of control | [6] 96 % of control

Cc1ccc(Cl)cc1NC(=O)N(C)Cc1ccccc1
inactive: [7] 95 % of control and 104 % of control | [8] 94 % of control and 120 % of control | [1] 100 % of control | [9] 97 % of control and 104 % of control | [10] 98 % of control and 105 % of control | [2] 105 % of control | [11] 97 % of control and 108 % of control | [12] 98 % of control and 86 % of control | [3] 108 % of control

CC(=O)OC(COS(=O)(=O)c1ccc(C)cc1)C1OCOC(COS(=O)(=O)c2ccc(C)cc2)C1OC(C)=O (configuration not stated)
inactive: dose: 100.0 mg/kg/injection, schedule: Q01DX001 (ip), vehicle: saline with Tween-80 92 % of control | dose: 200.0 mg/kg/injection, schedule: Q01DX001 (ip), vehicle: saline with Tween-80 93 % of control | dose: 400.0 mg/kg/injection, schedule: Q01DX001 (ip), vehicle: saline with Tween-80 95 % of control

CC(=O)OCC1OC(Sc2cc(Cl)ccc2Cl)C(OC(C)=O)C(OC(C)=O)C1OC(C)=O (configuration not stated)
inactive: [13] 100 % of control | [14] 94 % of control | [15] 100 % of control

Cc1cc(=O)c2c(C)cccc2[nH]1
inactive: dose: 6.25 mg/kg/injection, schedule: Q01DX009 (ip), vehicle: saline sonified 101 % of control | dose: 6.25 mg/kg/injection, schedule: Q04DX003 (ip), vehicle: saline with Tween-80 90 % of control | dose: 12.5 mg/kg/injection, schedule: Q01DX009 (ip), vehicle: saline sonified 99 % of control | dose: 25.0 mg/kg/injection, schedule: Q01DX009 (ip), vehicle: saline sonified 99 % of control | dose: 25.0 mg/kg/injection, schedule: Q04DX003 (ip), vehicle: saline with Tween-80 92 % of control

Cc1ccc(NC(=O)N(CCCl)N=O)c(NC(=O)N(CCCl)N=O)c1
inactive: dose: 30.0 mg/kg/injection, schedule: Q01DX001 (ip), vehicle: carboxymethylcellulose (CMC) 117 % of control | dose: 33.0 mg/kg/injection, schedule: Q01DX001 (ip), vehicle: carboxymethylcellulose (CMC) 107 % of control | dose: 33.0 mg/kg/injection, schedule: Q01DX009 (ip), vehicle: carboxymethylcellulose (CMC) 108 % of control | dose: 50.0 mg/kg/injection, schedule: Q01DX009 (ip), vehicle: carboxymethylcellulose (CMC) 88 % of control | [16] 113 % of control | dose: 112.0 mg/kg/injection, schedule: Q01DX001 (ip), vehicle: carboxymethylcellulose (CMC) 96 % of control

CCCCCCCC(=O)c1ccc(NC(C)=O)cc1
inactive: [4] 103 % of control | [17] 99 % of control | [5] 95 % of control | [18] 92 % of control | [6] 102 % of control | [19] 100 % of control

Cc1cc(OC(=O)Nc2ccccc2C(F)(F)F)cc(C)c1Cl
inactive: [7] 109 % of control | [8] 91 % of control | [9] 102 % of control | [10] 95 % of control | [12] 98 % of control

CC(C)(CCC(=S)N1CCOCC1)c1ccccc1
inactive: [17] 101 % of control | [18] 102 % of control | [19] 102 % of control

COc1ccc2[nH]c(=O)ccc2c1
inactive: dose: 300.0 mg/kg/injection, schedule: Q01DX001 (ip), vehicle: Klucel (hydroxypropylcellulose) (HPC) 98 % of control

CC(=O)Nc1cc([N+](=O)[O-])ccc1CC(O)c1ccccc1 (configuration not stated)
inactive: [4] 109 % of control | [17] 97 % of control | [5] 111 % of control | [18] 97 % of control | [6] 94 % of control | [19] 100 % of control

N#CCCNC(=S)Nc1ccccc1
inactive: dose: 25.0 mg/kg/injection, schedule: Q01DX Z (ip), vehicle: methylcellulose (MC) 102 % of control | dose: 50.0 mg/kg/injection, schedule: Q01DX Z (ip), vehicle: methylcellulose (MC) 101 % of control

Cc1ccc(S(=O)(=O)Nc2ccccc2-c2nc3ccc(C)cc3c(=O)o2)cc1
inactive: [1] 88 % of control | [2] 94 % of control | [3] 116 % of control

Oc1ccc2ccccc2c1Cc1ccccc1
inactive: [7] 99 % of control | [9] 89 % of control | [11] 92 % of control

Cc1ccc(S(=O)(=O)NCl)cc1
inactive: dose: 100.0 mg/kg/injection, schedule: Q04DX003 (ip), vehicle: saline 99 % of control

CC1(c2ccc(Cl)s2)C(=O)N(Cl)C(=O)N1Cl (configuration not stated)
inactive: dose: 12.5 mg/kg/injection, schedule: Q01DX009 (ip), vehicle: saline with Tween-80 95 % of control | dose: 25.0 mg/kg/injection, schedule: Q01DX009 (ip), vehicle: saline with Tween-80 100 % of control | dose: 50.0 mg/kg/injection, schedule: Q01DX009 (ip), vehicle: saline with Tween-80 94 % of control and 89 % of control | [7] 93 % of control | [1] 96 % of control | [2] 98 % of control

S=C(N/N=C\c1ccc2c(c1)OCO2)Nc1ccc2cn[nH]c2c1
inactive: dose: 50.0 mg/kg/injection, schedule: Q01DX001 (ip), vehicle: carboxymethylcellulose (CMC) 97 % of control | [20] 100 % of control | [21] 91 % of control

COc1cc([N+](=O)[O-])cc2c1OC1(C=C2)N(C)c2ccccc2C1(C)C (configuration not stated)
inactive: dose: 25.0 mg/kg/injection, schedule: Q04DX002 (ip), vehicle: gum acacia 111 % of control | dose: 50.0 mg/kg/injection, schedule: Q04DX002 (ip), vehicle: gum acacia 97 % of control and 100 % of control | dose: 100.0 mg/kg/injection, schedule: Q04DX002 (ip), vehicle: gum acacia 100 % of control | dose: 200.0 mg/kg/injection, schedule: Q04DX002 (ip), vehicle: gum acacia 108 % of control

CC/C(C)=C\CC/C(C)=C/COc1cccc(CC)c1
inactive: [8] 100 % of control | [10] 94 % of control | [12] 94 % of control

O=C1CC2CCCC1C2 (configuration not stated)
inactive: [13] 98 % of control | [14] 109 % of control | [15] 112 % of control

[N-]=[N+]=NC1=CC(=O)C(c2ccccc2)=CC1=O
inactive: [8] 102 % of control | [10] 97 % of control

CC1=CC(=O)CC(c2ccccc2)C1 (configuration not stated)
inactive: [20] 105 % of control | [21] 103 % of control | dose: 400.0 mg/kg/injection, schedule: Q01DX001 (ip), vehicle: carboxymethylcellulose (CMC) 109 % of control

CCNC(=O)Nc1ncn[nH]1
inactive: [16] 102 % of control | dose: 150.0 mg/kg/injection, schedule: Q01DX001 (ip), vehicle: carboxymethylcellulose (CMC) 98 % of control

Cc1c2ccccc2c(CNCCSCCCl)c2ccc3ccccc3c12
inactive: dose: 50.0 mg/kg/injection, schedule: Q01DX009 (ip), vehicle: saline 119 % of control | dose: 150.0 mg/kg/injection, schedule: Q01DX009 (ip), vehicle: saline 109 % of control | dose: 167.0 mg/kg/injection, schedule: Q01DX009 (ip), vehicle: saline 94 % of control

— PubChem BioAssay AID248 (DTP/NCI, 2004)
